Biological target: T1, CB1 receptor (Homo sapiens, UniProt P21554)
T1 construct: expressed in transfected cells
Experiment: [35S]-GTPγS binding assay on membranes from cells stably transfected with the CB1 gene, antagonism of CP55940
Format: biochemical
Details: half maximal inhibition of GTPγS binding, EC80 concentration of agonist CP55940, 30° C., 45 min
Method: 10 μg of membranes prepared from cells stably transfected with the CB1 gene were suspended in […] of 100 mM NaCl, 5 mM MgCl2, 1 mM EDTA, 50 mM HEPES (pH 7.4), 1 mM DTT, 0.1% BSA and 100 μM GDP. To this was added an EC80 concentration of agonist (CP55940), the required concentration of test compound and 0.1 μCi [^35S]-GTPγS. The reaction was allowed to proceed at 30° C. for 45 min. Samples were then transferred on to GF/B filters using a cell harvester and washed with wash buffer (50 mM Tris (pH 7.4), 5 mM MgCl2, 50 mM NaCl). Filters were then covered with scintilant and counted for the amount of [^35S]-GTPγS retained by the filter.
Activity is measured in the absence of all ligands (minimum activity) or in the presence of an EC80 concentration of CP55940 (maximum activity). These activities are set as 0% and 100% activity respectively. At various concentrations of novel ligand, activity is calculated as a percentage of the maximum activity and plotted. The data are fitted using the equation y=A+((B−A)/1+((C/x) ÙD)) and the IC50 value determined as the concentration required to give half maximal inhibition of GTPγS binding under the conditions used.

T1 sequence (P21554 whole entry): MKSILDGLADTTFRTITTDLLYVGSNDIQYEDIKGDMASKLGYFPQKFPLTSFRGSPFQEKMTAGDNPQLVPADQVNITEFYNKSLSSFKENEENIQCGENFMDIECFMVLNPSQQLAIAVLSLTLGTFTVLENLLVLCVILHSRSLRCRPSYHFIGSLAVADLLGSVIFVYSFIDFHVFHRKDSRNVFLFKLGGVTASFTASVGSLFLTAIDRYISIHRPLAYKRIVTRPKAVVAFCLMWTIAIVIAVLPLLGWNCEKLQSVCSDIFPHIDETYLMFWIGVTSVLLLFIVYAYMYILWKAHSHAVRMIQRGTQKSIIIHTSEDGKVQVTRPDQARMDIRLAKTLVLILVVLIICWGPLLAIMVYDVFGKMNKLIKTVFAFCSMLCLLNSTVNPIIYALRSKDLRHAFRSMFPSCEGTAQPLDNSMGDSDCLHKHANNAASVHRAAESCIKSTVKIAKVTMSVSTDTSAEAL

IC50: 1.2 nM
Compound: Cc1c(C(=O)Nc2ccc(F)nc2)nc(-c2ccc(Cl)cc2Cl)n1-c1ccc(OS(=O)(=O)CCC(F)(F)F)cc1 [Example 3, 4-(2-(2,4-dichlorophenyl)-4-{[(6-fluoropyridin-3-yl)amino]carbonyl}-5-methyl-1H-imidazol-1-yl)phenyl 3,3,3-trifluoropropane-1-sulfonate]

Source: US20080306115A1, “Midazole-4-Carboxamide Derivatives For Use As Cb1 Modulators” (priority 2005, published 2008)
